By IC50 is commonly meant the concentration at which inhibition is half-maximal. Low readings indicate greater potency, high ones weaker potency.

Here are results for three compounds from article PMC4774911, “Biochemical Screening of Five Protein Kinases from Plasmodium falciparum against 14,000 Cell-Active Compounds” (PLoS ONE, 2016).

One assay deals with RPS6KA5 (Homo sapiens, UniProt O75582). The assay can be described thus: biochemical.
The next assay concerns the target BTK (Homo sapiens, UniProt Q06187). As to the kind of experiment: biochemical.
A further assay deals with JAK1 (Homo sapiens, UniProt P23458). The assay can be described thus: biochemical.
A further assay has as its target PIM2 (Homo sapiens, UniProt Q9P1W9). As to the kind of experiment: biochemical.
The next assay has as its target T1, MAP2K4 (Homo sapiens, UniProt P45985).
T1 sequence (P45985 1-399): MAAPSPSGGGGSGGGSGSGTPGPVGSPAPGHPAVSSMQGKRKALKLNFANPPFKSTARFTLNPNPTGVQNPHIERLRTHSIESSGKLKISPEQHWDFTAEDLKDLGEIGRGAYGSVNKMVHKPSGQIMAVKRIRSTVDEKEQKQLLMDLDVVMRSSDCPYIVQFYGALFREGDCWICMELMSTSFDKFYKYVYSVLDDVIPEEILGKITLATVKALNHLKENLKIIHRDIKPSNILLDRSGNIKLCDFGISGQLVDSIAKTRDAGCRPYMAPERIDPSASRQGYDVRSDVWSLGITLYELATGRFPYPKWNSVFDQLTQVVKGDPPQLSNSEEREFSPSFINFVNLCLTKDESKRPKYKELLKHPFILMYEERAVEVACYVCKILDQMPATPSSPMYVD
The assay can be described thus: biochemical.

A further assay addresses MAPK9 (Homo sapiens, UniProt P45984). As to the kind of experiment: biochemical.
In another assay the target is T2, ACVR1 (Homo sapiens, UniProt Q04771).
T2 sequence (Q04771 1-509): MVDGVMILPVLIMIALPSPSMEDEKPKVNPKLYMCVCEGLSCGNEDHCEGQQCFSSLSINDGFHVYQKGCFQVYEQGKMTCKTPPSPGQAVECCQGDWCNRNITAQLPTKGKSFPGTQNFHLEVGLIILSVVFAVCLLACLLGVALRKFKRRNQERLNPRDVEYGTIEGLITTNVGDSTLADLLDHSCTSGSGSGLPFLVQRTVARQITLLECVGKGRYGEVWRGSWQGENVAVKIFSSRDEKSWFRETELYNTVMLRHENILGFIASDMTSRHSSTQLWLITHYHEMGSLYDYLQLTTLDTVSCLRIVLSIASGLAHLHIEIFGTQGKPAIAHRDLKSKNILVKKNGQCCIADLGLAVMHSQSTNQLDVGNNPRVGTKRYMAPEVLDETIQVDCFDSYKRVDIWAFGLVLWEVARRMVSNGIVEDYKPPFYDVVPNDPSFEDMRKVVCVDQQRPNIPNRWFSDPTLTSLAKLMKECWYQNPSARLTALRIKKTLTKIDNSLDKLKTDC
The assay can be described thus: biochemical.

For a further assay, the target named is T3, PRKX (Homo sapiens, UniProt P51817).
T3 sequence (P51817 1-358): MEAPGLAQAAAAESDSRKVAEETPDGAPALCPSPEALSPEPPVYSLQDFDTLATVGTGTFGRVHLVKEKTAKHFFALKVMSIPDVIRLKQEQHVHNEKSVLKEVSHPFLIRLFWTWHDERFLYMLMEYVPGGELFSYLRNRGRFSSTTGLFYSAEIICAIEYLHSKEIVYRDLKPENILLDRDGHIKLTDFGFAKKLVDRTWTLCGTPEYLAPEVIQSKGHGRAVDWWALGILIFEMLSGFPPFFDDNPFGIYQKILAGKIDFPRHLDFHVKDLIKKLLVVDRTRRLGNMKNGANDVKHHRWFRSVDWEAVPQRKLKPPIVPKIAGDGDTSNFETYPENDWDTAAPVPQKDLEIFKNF
The assay can be described thus: biochemical.

A further assay addresses CSNK2A2 (Homo sapiens, UniProt P19784). As to the kind of experiment: biochemical.
A further assay has as its target STK16 (Homo sapiens, UniProt O75716). As to the kind of experiment: biochemical.
The target in another assay is MAPK1 (Homo sapiens, UniProt P28482). The assay can be described thus: biochemical.
A further assay deals with CAMK2G (Homo sapiens, UniProt Q13555). The assay can be described thus: biochemical.
The subject of another assay is LOC100128443. The note with it: human.
The subject of assay [1] is human kinases in K562 cell extract. The assay can be described thus: Kinobead competition assay, kinome-wide summary. It is filed as binding. The note with it: for Human kinases with apparent pKd ≥ 4.7 (N = 2) / Human kinases with apparent pKd ≥ 6 (N = 2): K562 extract, number of kinases, 20 μM-0.03 μM compound. The method, then:
Kinobeads were prepared as described.

Another assay deals with P. falciparum 3D7 cells. The note with it: cited from earlier work.
The mark [2] stands for this setting: 3D7, downloaded from ChEMBL, ref F.J. Gamo et al., Nature 2010.
Where [3] appears, read: P. falciparum 3D7, downloaded from ChEMBL ref F.J. Gamo et al., Nature 2010.

Values joined by “and” are separate entries in the source; they are usually repeats but may differ in a detail not shown here. Equal values may be shown once. Read-outs that look alike come from different tables or passages of the source. Some results are limits rather than exact numbers.

MAPK9, sequence (P45984 whole entry): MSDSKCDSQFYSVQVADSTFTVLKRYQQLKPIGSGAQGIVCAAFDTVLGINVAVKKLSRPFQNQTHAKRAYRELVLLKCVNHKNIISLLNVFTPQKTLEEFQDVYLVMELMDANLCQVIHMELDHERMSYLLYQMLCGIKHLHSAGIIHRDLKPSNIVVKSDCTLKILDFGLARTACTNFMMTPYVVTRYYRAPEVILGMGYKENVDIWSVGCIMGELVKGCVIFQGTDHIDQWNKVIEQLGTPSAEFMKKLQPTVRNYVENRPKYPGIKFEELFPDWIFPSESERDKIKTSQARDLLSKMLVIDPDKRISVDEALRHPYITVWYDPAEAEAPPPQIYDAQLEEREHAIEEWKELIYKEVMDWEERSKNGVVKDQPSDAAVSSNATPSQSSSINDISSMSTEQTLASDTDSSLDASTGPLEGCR
CSNK2A2, sequence (P19784 whole entry): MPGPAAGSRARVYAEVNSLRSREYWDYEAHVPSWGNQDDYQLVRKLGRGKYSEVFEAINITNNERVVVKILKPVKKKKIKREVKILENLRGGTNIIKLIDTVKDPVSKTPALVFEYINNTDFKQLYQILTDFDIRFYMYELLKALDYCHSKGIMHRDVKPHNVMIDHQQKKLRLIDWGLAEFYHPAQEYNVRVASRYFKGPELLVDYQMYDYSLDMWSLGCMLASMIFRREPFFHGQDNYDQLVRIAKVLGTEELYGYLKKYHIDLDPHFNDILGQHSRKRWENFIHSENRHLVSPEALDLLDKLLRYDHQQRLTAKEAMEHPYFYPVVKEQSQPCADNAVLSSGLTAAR
STK16, sequence (O75716 whole entry): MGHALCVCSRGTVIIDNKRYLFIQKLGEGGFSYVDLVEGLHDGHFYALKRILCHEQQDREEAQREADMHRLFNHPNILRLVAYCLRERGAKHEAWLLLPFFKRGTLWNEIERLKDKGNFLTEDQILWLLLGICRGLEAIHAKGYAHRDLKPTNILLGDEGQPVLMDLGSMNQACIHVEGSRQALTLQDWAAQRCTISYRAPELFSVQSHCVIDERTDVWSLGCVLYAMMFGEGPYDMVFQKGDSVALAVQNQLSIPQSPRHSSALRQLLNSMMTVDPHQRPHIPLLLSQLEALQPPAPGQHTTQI
MAPK1, sequence (P28482 whole entry): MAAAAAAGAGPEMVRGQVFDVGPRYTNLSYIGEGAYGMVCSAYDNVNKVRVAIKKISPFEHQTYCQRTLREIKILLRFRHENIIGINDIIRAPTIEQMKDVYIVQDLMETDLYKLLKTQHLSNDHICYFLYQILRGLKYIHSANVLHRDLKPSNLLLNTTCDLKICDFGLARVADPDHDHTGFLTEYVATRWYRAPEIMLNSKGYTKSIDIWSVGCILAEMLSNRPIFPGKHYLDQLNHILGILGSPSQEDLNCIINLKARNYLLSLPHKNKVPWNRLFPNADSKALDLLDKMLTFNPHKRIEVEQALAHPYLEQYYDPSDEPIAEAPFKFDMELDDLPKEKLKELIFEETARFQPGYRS
BTK, sequence (Q06187 whole entry): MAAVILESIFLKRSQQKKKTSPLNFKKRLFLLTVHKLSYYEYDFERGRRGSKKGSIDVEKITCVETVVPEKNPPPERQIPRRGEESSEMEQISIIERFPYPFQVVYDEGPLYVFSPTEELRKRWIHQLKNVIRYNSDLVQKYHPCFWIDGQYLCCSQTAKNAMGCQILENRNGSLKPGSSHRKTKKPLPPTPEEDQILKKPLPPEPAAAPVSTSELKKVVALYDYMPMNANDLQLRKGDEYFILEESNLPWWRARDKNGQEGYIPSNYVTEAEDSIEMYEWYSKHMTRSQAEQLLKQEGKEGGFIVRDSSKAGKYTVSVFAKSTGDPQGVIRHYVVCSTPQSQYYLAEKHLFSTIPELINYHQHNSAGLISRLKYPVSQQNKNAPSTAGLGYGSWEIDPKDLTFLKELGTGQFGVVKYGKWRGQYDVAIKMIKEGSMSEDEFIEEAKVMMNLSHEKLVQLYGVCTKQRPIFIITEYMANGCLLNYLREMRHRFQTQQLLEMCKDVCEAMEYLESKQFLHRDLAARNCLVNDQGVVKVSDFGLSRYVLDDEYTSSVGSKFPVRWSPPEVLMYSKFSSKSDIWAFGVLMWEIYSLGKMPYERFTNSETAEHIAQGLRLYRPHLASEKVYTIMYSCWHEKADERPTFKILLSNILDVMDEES
CAMK2G, sequence (Q13555 whole entry): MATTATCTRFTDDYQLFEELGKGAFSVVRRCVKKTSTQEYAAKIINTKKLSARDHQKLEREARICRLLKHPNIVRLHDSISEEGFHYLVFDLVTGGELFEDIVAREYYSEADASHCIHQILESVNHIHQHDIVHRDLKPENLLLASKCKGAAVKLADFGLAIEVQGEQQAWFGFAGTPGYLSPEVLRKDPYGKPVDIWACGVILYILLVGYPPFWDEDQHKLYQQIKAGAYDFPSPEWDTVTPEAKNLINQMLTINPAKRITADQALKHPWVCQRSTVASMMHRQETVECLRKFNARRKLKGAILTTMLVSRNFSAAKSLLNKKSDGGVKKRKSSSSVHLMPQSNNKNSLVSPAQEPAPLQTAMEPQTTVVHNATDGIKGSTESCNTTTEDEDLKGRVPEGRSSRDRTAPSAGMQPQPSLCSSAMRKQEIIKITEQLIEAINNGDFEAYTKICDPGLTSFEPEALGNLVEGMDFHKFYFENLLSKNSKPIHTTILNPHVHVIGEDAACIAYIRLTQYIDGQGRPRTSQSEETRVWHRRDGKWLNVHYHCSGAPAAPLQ
RPS6KA5, sequence (O75582 whole entry): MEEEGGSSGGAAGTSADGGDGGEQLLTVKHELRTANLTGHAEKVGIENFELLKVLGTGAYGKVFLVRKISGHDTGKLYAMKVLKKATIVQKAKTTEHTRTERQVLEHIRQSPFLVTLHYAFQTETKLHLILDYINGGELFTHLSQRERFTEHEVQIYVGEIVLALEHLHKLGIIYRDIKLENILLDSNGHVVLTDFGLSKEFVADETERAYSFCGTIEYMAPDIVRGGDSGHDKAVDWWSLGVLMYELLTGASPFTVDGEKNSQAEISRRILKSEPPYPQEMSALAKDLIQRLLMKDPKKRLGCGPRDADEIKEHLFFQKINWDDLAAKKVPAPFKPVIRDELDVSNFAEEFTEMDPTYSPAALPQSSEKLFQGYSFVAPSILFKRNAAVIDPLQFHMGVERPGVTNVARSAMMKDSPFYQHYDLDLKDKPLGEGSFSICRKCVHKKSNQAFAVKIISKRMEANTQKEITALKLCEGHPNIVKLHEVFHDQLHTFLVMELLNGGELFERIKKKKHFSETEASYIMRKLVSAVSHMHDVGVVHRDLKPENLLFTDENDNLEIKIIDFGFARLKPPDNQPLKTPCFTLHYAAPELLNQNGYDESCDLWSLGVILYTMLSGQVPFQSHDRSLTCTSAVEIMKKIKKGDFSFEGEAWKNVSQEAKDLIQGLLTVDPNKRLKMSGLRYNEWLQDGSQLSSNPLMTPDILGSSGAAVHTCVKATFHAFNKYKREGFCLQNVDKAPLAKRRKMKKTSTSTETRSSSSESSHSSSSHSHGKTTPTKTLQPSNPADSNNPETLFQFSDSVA
PIM2, sequence (Q9P1W9 whole entry): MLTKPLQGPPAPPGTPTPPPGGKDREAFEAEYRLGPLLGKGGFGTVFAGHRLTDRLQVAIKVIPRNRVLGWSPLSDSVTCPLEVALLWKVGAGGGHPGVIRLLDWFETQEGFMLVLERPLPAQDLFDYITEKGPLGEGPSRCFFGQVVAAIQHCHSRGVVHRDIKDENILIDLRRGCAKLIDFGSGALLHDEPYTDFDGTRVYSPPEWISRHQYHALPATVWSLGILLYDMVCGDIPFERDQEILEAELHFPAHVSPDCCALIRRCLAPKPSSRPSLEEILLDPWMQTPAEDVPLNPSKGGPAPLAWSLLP
JAK1, sequence (P23458 whole entry): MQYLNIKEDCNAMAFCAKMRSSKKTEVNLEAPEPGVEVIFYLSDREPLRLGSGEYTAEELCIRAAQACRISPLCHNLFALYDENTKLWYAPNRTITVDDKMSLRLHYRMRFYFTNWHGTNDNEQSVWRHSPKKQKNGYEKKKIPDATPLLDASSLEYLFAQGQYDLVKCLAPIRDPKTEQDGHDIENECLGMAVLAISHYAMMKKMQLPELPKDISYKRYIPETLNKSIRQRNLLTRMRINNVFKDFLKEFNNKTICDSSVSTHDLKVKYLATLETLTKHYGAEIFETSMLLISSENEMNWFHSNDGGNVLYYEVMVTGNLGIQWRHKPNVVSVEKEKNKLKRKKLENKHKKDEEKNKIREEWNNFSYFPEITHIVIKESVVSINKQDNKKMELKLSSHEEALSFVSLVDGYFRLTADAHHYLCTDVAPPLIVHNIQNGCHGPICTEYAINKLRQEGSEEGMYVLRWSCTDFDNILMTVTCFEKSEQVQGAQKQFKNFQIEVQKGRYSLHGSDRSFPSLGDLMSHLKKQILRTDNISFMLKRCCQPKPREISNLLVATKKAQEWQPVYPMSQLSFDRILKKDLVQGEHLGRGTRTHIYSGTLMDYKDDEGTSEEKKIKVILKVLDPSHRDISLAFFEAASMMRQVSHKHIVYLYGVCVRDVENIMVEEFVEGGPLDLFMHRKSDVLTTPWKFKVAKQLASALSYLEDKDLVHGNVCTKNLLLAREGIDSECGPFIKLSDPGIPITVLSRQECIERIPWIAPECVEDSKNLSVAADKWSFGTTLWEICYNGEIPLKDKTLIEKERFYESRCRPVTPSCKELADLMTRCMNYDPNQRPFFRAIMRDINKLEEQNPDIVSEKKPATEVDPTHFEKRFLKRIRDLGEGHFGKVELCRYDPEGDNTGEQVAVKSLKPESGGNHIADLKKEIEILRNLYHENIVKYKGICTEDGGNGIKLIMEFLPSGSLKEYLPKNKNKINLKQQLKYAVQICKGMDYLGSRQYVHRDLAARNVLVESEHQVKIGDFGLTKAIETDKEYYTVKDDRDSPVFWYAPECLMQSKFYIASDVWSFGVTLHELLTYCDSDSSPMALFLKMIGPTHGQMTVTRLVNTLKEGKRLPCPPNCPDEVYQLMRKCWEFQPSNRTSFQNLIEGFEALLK

Take `CN1CCN(c2ccc(Nc3ncc(C#N)c(Nc4ccccc4C(N)=O)n3)cc2)CC1.Cl` [TCMDC-134116]: the IC50 on RPS6KA5 is 500 nM and 750 nM; against BTK, 600 nM and 670 nM; on JAK1, 53 nM and 79 nM; against PIM2 it was 4800 nM; on MAP2K4, above 20000 nM; on MAPK9 it was 1100 nM and 1000 nM. In addition, the IC50 is 8200 nM on ACVR1; 1300 nM against PRKX; at most 32 nM at CSNK2A2; 270 nM and 380 nM against STK16; above 20000 nM on MAPK1; 1500 nM and 1300 nM against CAMK2G. Further, in the assay with LOC100128443, the IC50 was 330 nM. The “Share of human kinases tested bound with high affinity (pKd ≥ 6)” value in [1] (K562 extract kinobeads) is “two thirds”. In addition, the “Human kinases with apparent pKd ≥ 4.7 (N = 2)” value in [1] was 126. The “Human kinases with apparent pKd ≥ 6 (N = 2)” value in assay [1] was 96. Moreover, the PCT_IHB_3D7 in the assay on P. falciparum 3D7 cells (setting [2]) is 92%. Also, the pXC50_3D7 in the assay with P. falciparum 3D7 cells (setting [2]) is on record as 7.405.
`Cl.NCC1(c2nc(-c3ccc(Cl)c(O)c3)c(-c3ccncc3)[nH]2)CCCCC1` [TCMDC-141154]: the IC50 against RPS6KA5 is above 20000 nM; against BTK it was above 20000 nM; against JAK1, above 20000 nM; against PIM2, above 20000 nM; against MAP2K4, above 20000 nM; against MAPK9, 1700 nM. For the same compound, the IC50 against ACVR1, on PRKX, against CSNK2A2, against STK16, on MAPK1 and on CAMK2G was above 20000 nM throughout. For the same compound, the IC50 in the assay with LOC100128443 was above 20000 nM. The “Human kinases with apparent pKd ≥ 4.7 (N = 2)” value in assay [1] was found to be 47. Besides, in [1], the “Human kinases with apparent pKd ≥ 6 (N = 2)” value is on record as 26. The PCT_IHB_3D7 in the assay on P. falciparum 3D7 cells (setting [3]) is on record as 98. For the same compound, the pXC50_3D7 in the assay with P. falciparum 3D7 cells (setting [3]) is recorded as 6.128.
Regarding `CN(C)CC(O)COc1ccc(Nc2ncc([N+](=O)[O-])c(Nc3ccccc3O)n2)cc1.O=C(O)C(F)(F)F` (stereo not shown) [TCMDC-141399], the IC50 is above 20000 nM on RPS6KA5; above 20000 nM against BTK; 1100 nM and 1400 nM on JAK1; above 20000 nM against PIM2; above 20000 nM on MAP2K4; above 20000 nM against MAPK9. Further, the IC50 at ACVR1 was above 20000 nM; against PRKX, above 20000 nM; against CSNK2A2, 56 nM and 45 nM; at STK16, 1100 nM; against MAPK1, above 20000 nM; on CAMK2G, above 20000 nM. In the assay on LOC100128443, this compound yielded an IC50 above 20000 nM. Moreover, the “Human kinases with apparent pKd ≥ 4.7 (N = 2)” value in [1] stood at 63. Further, the “Human kinases with apparent pKd ≥ 6 (N = 2)” value in [1] came to 24. In addition, in the assay with P. falciparum 3D7 cells (P. falciparum 3D7, ref ChEMBL), the PCT_IHB_3D7 is given as 100. Also, the pXC50_3D7 with P. falciparum 3D7 cells (P. falciparum 3D7, ref ChEMBL) was 6.118.
